By Kd is commonly meant the constant that tells how readily two partners part at equilibrium. Read a low Kd as higher affinity.

Positions count from the first letter of the chain named.

Experimental findings from paper PMC4938538, “Inhibition of Pig Phosphoenolpyruvate Carboxykinase Isoenzymes by 3-Mercaptopicolinic Acid and Novel Inhibitors” (PLoS ONE, 2016) are described below.

One series concerns the target T1, PEPCK-C 139M (Sus scrofa, UniProt A0A4X1UM84).
T1 construct: His-tag (cleaved yes); made in house; host or cells: Escherichia coli BL21 (DE3)
T1 sequence (A0A4X1UM84 1-622): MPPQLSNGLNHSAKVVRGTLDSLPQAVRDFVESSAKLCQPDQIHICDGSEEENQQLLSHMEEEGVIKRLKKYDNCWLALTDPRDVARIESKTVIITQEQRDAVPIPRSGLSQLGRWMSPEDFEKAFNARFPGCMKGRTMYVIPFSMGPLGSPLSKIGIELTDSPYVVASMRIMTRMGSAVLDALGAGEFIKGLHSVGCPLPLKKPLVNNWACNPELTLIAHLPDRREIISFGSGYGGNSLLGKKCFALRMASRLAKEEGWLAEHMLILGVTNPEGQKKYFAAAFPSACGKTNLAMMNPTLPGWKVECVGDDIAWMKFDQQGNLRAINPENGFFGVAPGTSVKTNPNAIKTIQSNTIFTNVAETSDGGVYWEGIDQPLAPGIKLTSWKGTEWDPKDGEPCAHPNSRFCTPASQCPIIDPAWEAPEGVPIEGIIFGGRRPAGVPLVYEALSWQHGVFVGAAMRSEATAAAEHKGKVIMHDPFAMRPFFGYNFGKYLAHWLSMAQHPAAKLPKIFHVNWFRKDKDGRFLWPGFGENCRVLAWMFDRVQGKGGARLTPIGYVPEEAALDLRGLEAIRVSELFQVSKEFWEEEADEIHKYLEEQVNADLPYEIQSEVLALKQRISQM
The series can be described thus: Isothermal titration calorimetry (ITC). Type of series: binding, pig. The settings on record: 139Met; for Kd / ΔH: 25°C. How it is done:
(§1) The reference cell was filled with distilled water. […] 2 mM GTP was also added to the enzyme solution in the corresponding experiments. […] In all the assays, a total of 19 injections of 2 μL were added sequentially to the sample cell with a 150 s spacing to ensure that the thermal power signal returned to the baseline prior to the next injection. The binding isotherms (normalized heat effect as a function of the molar ratio) were analyzed with Origin 7 (OriginLab) using a single class of binding sites model. Calorimetric assays were perform in duplicates at least.
Background: Isothermal titration calorimetry measures the heat released or taken up as one component is titrated into another.

The next series has as its target T2, PEPCK-C 139L (Sus scrofa, UniProt A0A4X1UM84, M139L).
T2 construct: His-tag (cleaved yes); made in house; host or cells: Escherichia coli BL21 (DE3)
T2 sequence (A0A4X1UM84 1-622 M139L): T1 sequence (A0A4X1UM84 1-622) with M139L
Kind of series: Isothermal titration calorimetry (ITC). Type of series: binding, pig. The conditions noted are these: 139Leu; for Kd / ΔH: 25°C. How it is done:
as §1

The nature of series [1]: Solubility / precipitation in the enzymatic assay. Type of series: physicochemical. How it is done:
Assays to calculate IC50 values were performed in the direction of OAA synthesis in 1 mL of a 100 mM HEPES buffer pH 7.4, containing 10 mM DTT, 0.2 mM MnCl2, 2 mM MgCl2, 2 mM GDP, 0.2 mM NADH, 2 mM PEP, 100 mM KHCO3 and 4 units of malate dehydrogenase. Variable inhibitor concentrations of 0–200 μM were also used. Assays were initiated by PEPCK-C addition. Rates were calculated by measuring the decreasing slope of absorbance at 340 nm after subtracting the rate of spontaneous NADH oxidation.

The next series relates to PEPCK-C 139Met. Kind of series: Thermal-shift screening of chemical library (ANS fluorescence). Type of series: binding, pig. The conditions noted are these: 25 μM compound, 4 μM PEPCK-C. How it is done: PEPCK-C effectors were identified from a chemical library using a screening procedure based on a thermal-shift assay. Potential protein effector compounds were dispensed into 96-well microplates. Each well contained 4 μM PEPCK-C in a 20 mM HEPES buffer pH 7.4, plus 1 mM TCEP, 100 μM ANS, 10% DMSO and either 1 or 5 chemical library compounds, each at a 25 μM concentration. […] 50 μL of mineral oil were added to each well to prevent evaporation. In a first screening round, 5 different compounds were present in each well. The binding of effectors to PEPCK-C was assessed by monitoring the thermal denaturation of the enzyme and identifying compounds inducing a stabilizing effect (increase in the unfolding temperature, Tm, compared to the free enzyme) in a FluoDia T70 High Temperature Fluorescence Microplate Reader (Photon Technology International, UK). To obtain Tm values, unfolding curves were fitted to Boltzmann function (Eq 1) using OriginPro 9.1 software. y(T) = A1−A2/1+exp(T−Tm/S)+A2 (1) where A1 and A2 are the asymptotic values of the signal in the pre- and post-transition region of the unfolding curve, respectively, and S is a parameter associated with the slope of the unfolding curve at the Tm and related to the unfolding enthalpy of the enzyme. […] In a second round, the compounds present in the positive wells were individually analyzed to identify the binders.

Setting [2] is: stated for both isoenzymes, with and without GTP.

Turning to `O=C(O)c1ncccc1S` [3-MP, 3-mercaptopicolinic acid], the Kd at PEPCK-C 139M (+GTP (2 mM)) was determined as 19 µM; on PEPCK-C 139M (-GTP) it was 7.2 µM; on PEPCK-C 139L (+GTP (2 mM)), 39 µM; at PEPCK-C 139L (-GTP) it was 12 µM. Moreover, the ΔH at PEPCK-C 139M (+GTP (2 mM)) is reported as -31.8 kcal/mol; at PEPCK-C 139M (-GTP) it was -20.4 kcal/mol; on PEPCK-C 139L (+GTP (2 mM)), -58.2 kcal/mol; on PEPCK-C 139L (-GTP) it was -32.6 kcal/mol.
`CC(=NNC(=S)NC1CCCCC1)c1sc(-c2cccs2)nc1C` [compound 1, N1-cyclohexyl-2-{1-[4-methyl-2-(2-thienyl)-1,3-thiazol-5-yl]ethylidene}hydrazine-1-carbothiamide]: the “Solubility (in words)” value in series [1] is “poor solubility”. Besides, in the series on PEPCK-C 139Met, the “Increase in Tm compared with controls” value was “around 8 °C”.
For `Cn1nc(-c2ccc(C=NNC(=O)c3ccc(Cl)cc3Cl)s2)cc1C(F)(F)F` [compound 2, N'1-({5-[1-methyl-5-(trifluoromethyl)-1H-pyrazol-3-yl]-2-thienyl}methylidene)-2,4-dichlorobenzene-1-carbohydrazide], the “Solubility (in words)” value in series [1] is on record as “poor solubility”. The Kd on PEPCK-C 139M (+GTP (2 mM)) was found to be 19 µM; on PEPCK-C 139M (-GTP) it was 4.4 µM; on PEPCK-C 139L (+GTP (2 mM)), 14 µM; at PEPCK-C 139L (-GTP), 9.8 µM. Besides, the ΔH on PEPCK-C 139M (+GTP (2 mM)) is -26.6 kcal/mol; on PEPCK-C 139M (-GTP), -20.5 kcal/mol; on PEPCK-C 139L (+GTP (2 mM)), -13.9 kcal/mol; at PEPCK-C 139L (-GTP), -16.7 kcal/mol. In addition, the “n (stoichiometry, number of binding sites), all experiments” value at PEPCK-C 139M (setting [2]) and on PEPCK-C 139L (setting [2]) was ~1 in each case. In addition, the “Increase in Tm compared with controls” value with PEPCK-C 139Met is “around 8 °C”.
